# Molecular target: P2X7 (Homo sapiens (Human), UniProt Q99572)
# Test: P2X7 antagonism in human PBMCs (LPS + Bz-ATP induced IL-1β release, ELISA);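 note: PBMCs from donor human blood, with a further 1.5 h incubation of the cells in the assay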
# Assay type: cell-based
# Conditions: compound 10 μM, LPS 30 ng/ml, Bz-ATP 0.5 mM
# Sequence of P2X7 (Q99572 whole entry): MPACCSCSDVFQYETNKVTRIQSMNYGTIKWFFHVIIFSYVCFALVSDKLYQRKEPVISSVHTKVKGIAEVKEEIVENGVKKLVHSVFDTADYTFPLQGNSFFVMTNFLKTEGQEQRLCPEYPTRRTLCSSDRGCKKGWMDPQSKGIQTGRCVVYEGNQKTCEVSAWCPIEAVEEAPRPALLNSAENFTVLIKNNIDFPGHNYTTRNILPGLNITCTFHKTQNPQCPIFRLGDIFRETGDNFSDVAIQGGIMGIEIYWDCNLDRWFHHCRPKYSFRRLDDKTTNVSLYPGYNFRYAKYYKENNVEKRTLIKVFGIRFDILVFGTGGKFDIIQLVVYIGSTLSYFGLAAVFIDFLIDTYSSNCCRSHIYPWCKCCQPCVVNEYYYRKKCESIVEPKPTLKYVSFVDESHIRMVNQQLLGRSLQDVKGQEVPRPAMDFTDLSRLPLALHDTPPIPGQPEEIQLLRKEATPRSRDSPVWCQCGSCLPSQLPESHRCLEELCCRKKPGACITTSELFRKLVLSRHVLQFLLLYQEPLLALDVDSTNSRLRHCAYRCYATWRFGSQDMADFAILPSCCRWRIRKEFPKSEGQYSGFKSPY
row,Structure (SMILES),PBMC 10 μM (% control)
1,"C[C@H]1c2nnn(-c3ncc(F)cn3)c2CCN1C(=O)c1cccc(C(F)(F)F)c1Cl (single isomer, unassigned) [Example 157, (S*)-(2-Chloro-3-(trifluoromethyl)phenyl)(1-(5-fluoropyrimidin-2-yl)-4-methyl-6,7-dihydro-1H-[1,2,3]triazolo[4,5-c]pyridin-5(4H)-yl)methanone]",−1.4 % control
2,"C[C@@H]1c2nnn(-c3ncc(F)cn3)c2CCN1C(=O)c1cccc(C(F)(F)F)c1Cl (single isomer, unassigned) [Example 158, (R*)-(2-Chloro-3-(trifluoromethyl)phenyl)(1-(5-fluoropyrimidin-2-yl)-4-methyl-6,7-dihydro-1H-[1,2,3]triazolo[4,5-c]pyridin-5(4H)-yl)methanone]",1.1 % control
3,"C[C@H]1c2nnn(-c3ncc(F)cn3)c2CCN1C(=O)c1ccnc(C(F)(F)F)c1Cl (single isomer, unassigned) [Example 164, (S*)-(3-chloro-2-(trifluoromethyl)pyridin-4-yl)(1-(5-fluoropyrimidin-2-yl)-4-methyl-6,7-dihydro-1H-[1,2,3]triazolo[4,5-c]pyridin-5(4H)-yl)methanone]",98.1 % control
4,"C[C@@H]1Cc2c(nnn2-c2ncccc2F)CN1C(=O)c1cccc(Cl)c1Cl (single isomer, unassigned) [Example 165, (6R*)-5-[(2,3-Dichlorophenyl)carbonyl]-1-(3-fluoropyridin-2-yl)-6-methyl-4,5,6,7-tetrahydro-1H-[1,2,3]triazolo[4,5-c]pyridine]",60.7 % control
5,"C[C@H]1Cc2c(nnn2-c2ncccc2F)CN1C(=O)c1cccc(Cl)c1Cl (single isomer, unassigned) [Example 166, (6S*)-5-[(2,3-Dichlorophenyl)carbonyl]-1-(3-fluoropyridin-2-yl)-6-methyl-4,5,6,7-tetrahydro-1H-[1,2,3]triazolo[4,5-c]pyridine]",0.6 % control
6,"C[C@@H]1Cc2c(nnn2-c2ncccc2F)CN1C(=O)c1cccc(C(F)(F)F)c1Cl (single isomer, unassigned) [Example 167, (6R*)-5-{[2-Chloro-3-(trifluoromethyl)phenyl]carbonyl}-1-(3-fluoropyridin-2-yl)-6-methyl-4,5,6,7-tetrahydro-1H-[1,2,3]triazolo[4,5-c]pyridine]",4.2 % control
7,"C[C@H]1Cc2c(nnn2-c2ncccc2F)CN1C(=O)c1cccc(C(F)(F)F)c1Cl (single isomer, unassigned) [Example 168, (6S*)-5-{[2-Chloro-3-(trifluoromethyl)phenyl]carbonyl}-1-(3-fluoropyridin-2-yl)-6-methyl-4,5,6,7-tetrahydro-1H-[1,2,3]triazolo[4,5-c]pyridine]",−4.2 % control
8,"C[C@@H]1c2nnn(-c3ccn(C)n3)c2CCN1C(=O)c1cccc(C(F)(F)F)c1Cl (single isomer, unassigned) [Example 169, (R*)-(2-Chloro-3-(trifluoromethyl)phenyl)(4-methyl-1-(1-methyl-1H-pyrazol-3-yl)-6,7-dihydro-1H-[1,2,3]triazolo[4,5-c]pyridin-5(4H)-yl)methanone]",95.0 % control
9,"C[C@H]1c2nnn(-c3ncc(F)cn3)c2CCN1C(=O)c1cccc(C(F)(F)F)c1F (single isomer, unassigned) [Example 178, (S*)-(2-fluoro-3-(trifluoromethyl)phenyl)(1-(5-fluoropyrimidin-2-yl)-4-methyl-6,7-dihydro-1H-[1,2,3]triazolo[4,5-c]pyridin-5(4H)-yl)methanone]",−4.7 % control
10,"Cc1cc(C)nc(-n2nnc3c2CCN(C(=O)c2cccc(C(F)(F)F)c2Cl)[C@H]3C)n1 (single isomer, unassigned) [Example 182, (S*)-(2-chloro-3-(trifluoromethyl)phenyl)(1-(4,6-dimethylpyrimidin-2-yl)-4-methyl-6,7-dihydro-1H-[1,2,3]triazolo[4,5-c]pyridin-5(4H)-yl)methanone]",62.5 % control
11,"C[C@H]1Cc2c(nnn2-c2ncc(F)cn2)CN1C(=O)c1ccnc(C(F)(F)F)c1Cl (single isomer, unassigned) [Example 183, (R*)-(3-chloro-2-(trifluoromethyl)pyridin-4-yl)(1-(5-fluoropyrimidin-2-yl)-6-methyl-6,7-dihydro-1H-[1,2,3]triazolo[4,5-c]pyridin-5(4H)-yl)methanone]",−1.2 % control
12,"Cc1c(C(=O)N2Cc3nnn(-c4ncc(F)cn4)c3C[C@H]2C)ccnc1C(F)(F)F (single isomer, unassigned) [Example 187, (S*)-(1-(5-fluoropyrimidin-2-yl)-6-methyl-6,7-dihydro-1H-[1,2,3]triazolo[4,5-c]pyridin-5(4H)-yl)(3-methyl-2-(trifluoromethyl)pyridin-4-yl)methanone]",−0.6 % control

# Now from value to compound:
row,PBMC 10 μM (% control),Structure (SMILES)
1,3.5 % control,"C[C@H]1c2nnn(-c3cc(F)ccn3)c2CCN1C(=O)c1cccc(C(F)(F)F)c1Cl (single isomer, unassigned) [Example 149, (S*)-(2-Chloro-3-(trifluoromethyl)phenyl)(1-(4-fluoropyridin-2-yl)-4-methyl-6,7-dihydro-1H-[1,2,3]triazolo[4,5-c]pyridin-5(4H)-yl)methanone]"
2,19.5 % control,"COc1ccnc(-n2nnc3c2CCN(C(=O)c2cccc(C(F)(F)F)c2Cl)[C@H]3C)c1 (single isomer, unassigned) [Example 151, (R*)-(2-Chloro-3-(trifluoromethyl)phenyl)(1-(4-methoxypyridin-2-yl)-4-methyl-6,7-dihydro-1H-[1,2,3]triazolo[4,5-c]pyridin-5(4H)-yl)methanone]"
3,15.4 % control,"COc1ccnc(-n2nnc3c2CCN(C(=O)c2cccc(C(F)(F)F)c2Cl)[C@@H]3C)c1 (single isomer, unassigned) [Example 152, (S*)-(2-Chloro-3-(trifluoromethyl)phenyl)(1-(4-methoxypyridin-2-yl)-4-methyl-6,7-dihydro-1H-[1,2,3]triazolo[4,5-c]pyridin-5(4H)-yl)methanone]"
4,−3.7 % control,"Cc1ccnc(-n2nnc3c2CCN(C(=O)c2cccc(C(F)(F)F)c2Cl)[C@@H]3C)c1 (single isomer, unassigned) [Example 185, (R*)-(2-chloro-3-(trifluoromethyl)phenyl)(4-methyl-1-(4-methylpyridin-2-yl)-6,7-dihydro-1H-[1,2,3]triazolo[4,5-c]pyridin-5(4H)-yl)methanone]"
5,−0.5 % control,"Cc1ccnc(-n2nnc3c2CCN(C(=O)c2cccc(C(F)(F)F)c2Cl)[C@H]3C)c1 (single isomer, unassigned) [Example 186, (S*)-(2-chloro-3-(trifluoromethyl)phenyl)(4-methyl-1-(4-methylpyridin-2-yl)-6,7-dihydro-1H-[1,2,3]triazolo[4,5-c]pyridin-5(4H)-yl)methanone]"
